Results reported in patent publication US12528792B2, “Sulfonamide compounds and the use thereof in the treatment of cancer” (TROBIO THERAPEUTICS PTY LTD, priority 2019, dated 2026).

Assays:
Assay type in all cases: cell-based
[1] = system: A2780 ovarian cancer cells; assay: In vitro growth inhibition assay, Alamar Blue, single agent IC50; conditions: Homo sapiens, single agent, 96-well plate format, read-out: Dose matrix IC50 concentrations
Description: In vitro growth inhibition assays were performed as technical triplicate in two independent experiments and cell viability was assessed by Alamar Blue assay readout. Briefly, cells in logarithmic phase growth were seeded in 384-well plates in a 50 μL/well assay volume. Cells were seeded at 1,200 cells/well using a Multidrop 384 (Thermo Scientific) and allowed to adhere at 37° C. with 5% CO2, in a humidified atmosphere (LiCONIC incubator). After 24 hours incubation, test compounds, positive control (20 μM Thonzonium bromide, 100% kill) and vehicle only (0.4% DMSO) were added into wells of each assay plate using a Tecan HP D300 Digital Dispenser in technical triplicate under minimum light. Following 72 hours drug exposure, metabolic activity was detected by addition of 10% (v/v) Alamar Blue reagent to each assay well using a Multidrop Cambi (Thermo Scientific) and determined by measurement of fluorescence intensity (excitation 555 nm, emission 585 nm) using an EnSpire (Perkin Elmer) plate reader. Readings were performed at 0 hour (background) and after 6 hours alamar blue incubation at 37° C.
Each drug was tested as a 10-point concentration series with two-fold serial dilutions of each drug. The concentration series for compounds 6 and 8 was 100, 50, 25, 12.5, 6.25, 3.125, 1.563, 0.781, 0.391 and 0.195 μM and for compounds 24, 43 and 48 was 50, 25, 12.5, 6.25, 3.125, 1.563, 0.781, 0.391, 0.195 and 0.098 μM for the two independent experiments. The concentration series for vinorelbine and paclitaxel was 100, 50, 25, 12.5, 6.25, 3.125, 1.5625, 0.781, 0.391 and 0.195 nM. Thonzonium bromide (20 μM) and 0.4% DMSO were used as positive and vehicle controls, respectively. The IC50 value was calculated by derivation of the best-fit line using a sigmoidal dose response model (Activity Base Software Suite, IDES).
Activity Base software suite (IDES, version 8.3.0.175) was used for data analysis. Cell survival is expressed as a percentage of viable cells. IC50 concentrations were calculated by derivation of the best-fit line using a sigmoidal dose response model with technical triplicate data points.

A549 (NSCLC) cells = assay: Anti-proliferative activity, Cell-Titre luminescent viability assay; conditions: Homo sapiens, 72 h exposure, Cell-Titre luminescent reagent
Summary of the method: (§1)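 Cells attached 24 h at 37° C., 5% CO2, then treated 72 h with compound at 0.3–100 μM or 0.1–30 μM. Viability read by Cell-Titre luminescence after 30 min reagent exposure, normalized to vehicle; EC50 from variable-slope sigmoidal nonlinear regression.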

A2780 (ovarian) cells = assay: as above; conditions: Homo sapiens, 72 h exposure, Cell-Titre luminescent reagent
Summary of the method: as §1

[2] = system: SK-N-SH neuroblastoma cells; assay: Cytotoxicity assay, MTS viability; conditions: Homo sapiens, 72 hours
Description: The ability of compounds of the disclosure to inhibit the proliferation of SK—N—SH neuroblastoma cells was assessed. The SK—N—SH cell line was maintained as a monolayer in Dulbeccos Modified Eagles medium (DMEM) supplemented with 10% foetal bovine serum (FBS) and grown at 37° C. in a humidified atmosphere with 5% CO2. For the cytotoxicity assay, SK—N—SH cells were seeded at a density of 2×10^3 cells per well in 96-well plates. The cells were treated with serial dilutions of the test compounds (1:2 starting concentration 100 µM) and viability measured after 72 hours using a standard MTS assay. Cell viability was normalised to control (vehicle alone) and dose response curves and EC50 values (Table 3) were determined using Graph Pad Prism 6.

IC50 [1]	IC50 (A549 (NSCLC) cells)	IC50 (A2780 (ovarian) cells)	SMILES	IC50 [2]
0.004 µM			CC(=O)O[C@H]1C(=O)[C@@]2(C)[C@H]([C@H](OC(=O)c3ccccc3)[C@]3(O)C[C@H](OC(=O)[C@H](O)[C@@H](NC(=O)c4ccccc4)c4ccccc4)C(C)=C1C3(C)C)[C@]1(OC(C)=O)CO[C@@H]1C[C@@H]2O [paclitaxel, reference compound]	
0.004 µM			CCC1=C[C@@H]2CN(C1)Cc1c([nH]c3ccccc13)[C@@](C(=O)OC)(c1cc3c(cc1OC)N(C)[C@H]1[C@@](O)(C(=O)OC)[C@H](OC(C)=O)[C@]4(CC)C=CCN5CC[C@]31[C@@H]54)C2 [vinorelbine, reference compound]	
	2.3 µM	1.6 µM	O=C(Nc1ccccc1C(F)(F)F)c1ccn(S(=O)(=O)c2ccc3[nH]ccc3c2)c1 [Compound 47, 1-((1H-indol-5-yl)sulfonyl)-N-(2-(trifluoromethyl)phenyl)-1H-pyrrole-3-carboxamide]	27.8 µM
	12.8 µM	1.1 µM	CCc1cccc(NC(=O)c2ccn(S(=O)(=O)c3ccc4[nH]ccc4c3)c2)c1 [Compound 41, 1-((1H-indol-5-yl)sulfonyl)-N-(3-ethylphenyl)-1H-pyrrole-3-carboxamide]	16.2 µM
	> 100 µM	> 100 µM	Cc1ccc(NC(=O)c2ccn(S(=O)(=O)c3ccc4c(c3)CCN4)c2)cc1O [Compound 22, N-(3-hydroxy-4-methylphenyl)-1-(indolin-5-ylsulfonyl)-1H-pyrrole-3-carboxamide]	57.6 µM
	6.58 µM	8.11 µM	CC(C)c1ccc(NC(=O)c2ccn(S(=O)(=O)c3ccc4[nH]ccc4c3)n2)cc1 [Compound 107, 1-((1H-indol-5-yl)sulfonyl)-N-(4-isopropylphenyl)-1H-pyrazole-3-carboxamide]	6.22 µM
	27.6 µM	6.8 µM	CCC(C)c1ccc(NC(=O)c2ccn(S(=O)(=O)c3cc(C(N)=O)n(C)c3)c2)cc1 (centres unmarked) [Compound 18, 4-((3-((4-(sec-butyl)phenyl)carbamoyl)-1H-pyrrol-1-yl)sulfonyl)-1-methyl-1H-pyrrole-2-carboxamide]	22.3 µM
	3.2 µM	5.4 µM	CCC(C)c1ccc(CCC2CCN(S(=O)(=O)c3cc(C(N)=O)n(C)c3)CC2)cc1 (centres unmarked) [Compound 34, 4-((4-(4-(sec-butyl)phenethyl)piperidin-1-yl)sulfonyl)-1-methyl-1H-pyrrole-2-carboxamide]	46.2 µM
	> 100 µM	> 100 µM	CCC(C)c1ccc(NC(=O)C2CCN(S(C)(=O)=O)CC2)cc1 (centres unmarked) [Compound 29, N-(4-(sec-butyl)phenyl)-1-(methylsulfonyl) piperidine-4-carboxamide]	> 100 µM
	9.28 µM	7.49 µM	O=C(Nc1ccc(Cl)c(Cl)c1)c1ccn(S(=O)(=O)c2ccc3[nH]ccc3c2)c1 [Compound 71, 1-((1H-indol-5-yl)sulfonyl)-N-(3,4-dichlorophenyl)-1H-pyrrole-3-carboxamide]	8.9 µM
	14 µM	9.8 µM	CCC(C)c1ccc(NC(=O)C2CCN(S(=O)(=O)c3ccc4cc[nH]c4c3)CC2)cc1 (centres unmarked) [Compound 64, 1-((1H-indol-6-yl)sulfonyl)-N-(4-(sec-butyl)phenyl) piperidine-4-carboxamide]	4.05 µM
	13.3 µM	8.66 µM	O=C(Nc1ccc(Cl)c(F)c1)c1ccn(S(=O)(=O)c2ccc3[nH]ccc3c2)c1 [Compound 69, 1-((1H-indol-5-yl)sulfonyl)-N-(4-chloro-3-fluorophenyl)-1H-pyrrole-3-carboxamide]	17.3 µM
	12.8 µM	3.2 µM	CC(C)(C)c1ccc(S(=O)(=O)n2ccc(C(=O)Nc3ccc(C(F)(F)F)cc3)c2)cc1 [Compound 93, 1-((4-(tert-butyl)phenyl)sulfonyl)-N-(4-(trifluoromethyl)phenyl)-1H-pyrrole-3-carboxamide]	18.2 µM
	33.1 µM	24.8 µM	O=C(Nc1ccc(C(F)(F)F)cc1)N1CCN(S(=O)(=O)c2ccc3c(c2)CCN3)CC1 [Compound 14, 4-(indolin-5-ylsulfonyl)-N-(4-(trifluoromethyl)phenyl)piperazine-1-carboxamide]	26.6 µM
	5.53 µM	8.65 µM	CCCc1ccc(NC(=O)c2ccn(S(=O)(=O)c3ccc4[nH]ccc4c3)n2)cc1 [Compound 109, 1-((1H-indol-5-yl)sulfonyl)-N-(4-propylphenyl)-1H-pyrazole-3-carboxamide]	11 µM
	3.9 µM	3.8 µM	CCC(C)c1ccc(NC(=O)c2ccn(S(=O)(=O)c3cnc4[nH]ccc4c3)c2)cc1 (centres unmarked) [Compound 60, 1-((1H-pyrrolo[2,3-b]pyridin-5-yl)sulfonyl)-N-(4-(sec-butyl)phenyl)-1H-pyrrole-3-carboxamide]	13.2 µM
	11 µM	8.87 µM	CC(C)(C)c1ccc(NC(=O)c2ccn(S(=O)(=O)c3ccc4[nH]ccc4c3)c2)cc1 [Compound 100, 1-((1H-indol-5-yl)sulfonyl)-N-(4-(tert-butyl)phenyl)-1H-pyrrole-3-carboxamide]	7.51 µM
	5.4 µM	6.7 µM	CC(C)c1cccc(NC(=O)c2ccn(S(=O)(=O)c3ccc4[nH]ccc4c3)c2)c1 [Compound 38, 1-((1H-indol-5-yl)sulfonyl)-N-(3-isopropylphenyl)-1H-pyrrole-3-carboxamide]	12 µM
	33.7 µM	13.9 µM	Cn1cc(S(=O)(=O)N2CCC(C(=O)Nc3ccc(C(F)(F)F)cc3)CC2)cc1C(N)=O [Compound 2, 1-((5-carbamoyl-1-methyl-1H-pyrrol-3-yl)sulfonyl)-N-(4-(trifluoromethyl)phenyl)piperidine-4-carboxamide]	26.4 µM
	3.6 µM	2.2 µM	CCC(C)c1cccc(NC(=O)c2ccn(S(=O)(=O)c3ccc4[nH]ccc4c3)c2)c1 (centres unmarked) [Compound 35, 1-((1H-indol-5-yl)sulfonyl)-N-(3-(sec-butyl)phenyl)-1H-pyrrole-3-carboxamide]	6.81 µM
	> 100 µM	48.4 µM	Cn1cc(S(=O)(=O)N2CCN(C(=O)Nc3ccc(C(F)(F)F)cc3)CC2)cc1C(N)=O [Compound 11, 4-((5-carbamoyl-1-methyl-1H-pyrrol-3-yl)sulfonyl)-N-(4-(trifluoromethyl)phenyl)piperazine-1-carboxamide]	> 100 µM
	17.3 µM	28.8 µM	Cc1ccc(NC(=O)N2CCN(S(=O)(=O)c3ccc4[nH]ccc4c3)CC2)cc1O [Compound 16, 4-((1H-indol-5-yl)sulfonyl)-N-(3-hydroxy-4-methylphenyl)piperazine-1-carboxamide]	31.5 µM
